Measurements: patent US9359395B2, “Prodrugs of steroidal CYP17 inhibitors/antiandrogens” (Tokai Pharmaceuticals, Inc., priority 2009, dated 2016)
Values belong to the compound of their own block, whether it stands above or below them.

Tests used:
[1] = Oral bioavailability in rats; conditions: rat, in vivo, initial studies
[2] = mice, cited from earlier work; for detectability in plasma at 8 hours / peak plasma levels: s.c. 50 mg/kg
AR = conditions: cited from earlier work
[3] = tested on: androgen-dependent LAPC4 human prostate tumor xenograft; conditions: cited from earlier work; for inhibiting the growth of LAPC4 xenograft: in vivo

bioavailability [1]: ~10%
SMILES: C[C@]12CC[C@H](O)CC1=CCC1C2CC[C@]2(C)C(n3cnc4ccccc43)=CCC12 (stereo partly drawn) [Compound 5, 3-β-hydroxy-17-(1H-benzimidazole-1-yl)androsta-5,16-diene]
detectability in plasma at 8 hours [2]: neither was detectable
peak plasma levels [2]: 16.82 ng/mL
conversion into metabolite ([2]; metabolite tentatively identified as 17-(1H-benzimidazol-1-yl)androsta-3-one): rapidly converted into a metabolite
AR antagonist activity (AR): potent pure AR antagonists
reduction in the mean final tumor volume compared with controls ([3]; 50 mg/kg, twice daily, P=0.00065): 93.8%
efficacy compared with castration ([3]; 50 mg/kg, twice daily): significantly more effective than castration
inhibiting the growth of LAPC4 xenograft [3]: very effective

SMILES: C[C@]12CCC(=O)C=C1CCC1C2CC[C@]2(C)C(n3cnc4ccccc43)=CCC12 (stereo partly drawn) [Compound 6, 17-(1H-benzimidazole-1-yl)androsta-4,16-diene-3-one]
detectability in plasma at 8 hours [2]: neither was detectable
peak plasma levels [2]: 5.15 ng/mL
AR antagonist activity (AR): potent pure AR antagonists
inhibiting the growth of LAPC4 xenograft [3]: ineffective
